The values that follow come from patent US11168095B2, “ASK1 inhibiting agents” (BIOGEN MA INC., priority 2017, dated 2021).

The target in one test is GST-hASK1 (Homo sapiens (Human), UniProt Q99683). Description: ASK1 TR-FRET assay. Type of test: biochemical. The following applies: 5 nM GST-hASK1, 100 μM ATP, 2 μM STK Substrate 3. As to the method: The protein kinase activity of 5 nM GST-hASK1(Life Technologies PV4011) was assayed with 100 μM ATP and 2 μM of HTRF biotinylated STK Substrate 3 (CisBio Kit 62ST3PEJ), at ambient temperature in 25 mM Hepes, pH 7.5, 50 mM NaCl, 10 mM MgCl2, 0.02% Brij-35, 1 mM DTT, and 1% DMSO.
After a 10 minute pre-incubation, ASK1 protein kinase activity was initiated by addition of 10 μL of 300 μM ATP.

In test [1] the target is ASK1 T838 auto phosphorylation in HEK-293T cells (Homo sapiens (Human), UniProt Q99683). Description: ASK1 (AUTO PHOS T838) assay, MSD format. Particulars: HEK 293T cells transfected with ASK1-V5 full length plasmid, compounds 1 hr at 37° C.; read-out: IC50. Type of test: cell-based.
A further test addresses ASK1/MAP3K5 (Homo sapiens (Human), UniProt Q99683). Description: ASK1/MAP3K5 assay by Reaction Biology Corp. Type of test: biochemical. Particulars: 20 μM myelin basic protein (MBP), 10 μM ATP. Here is the method:
ASK1/MAP3K5 was used as the protein kinase and 20 μM of myelin basic protein (MBP) and 10 μM ATP were used as the substrate.

Sequence of ASK1 T838 auto phosphorylation in HEK-293T cells (Q99683 whole entry): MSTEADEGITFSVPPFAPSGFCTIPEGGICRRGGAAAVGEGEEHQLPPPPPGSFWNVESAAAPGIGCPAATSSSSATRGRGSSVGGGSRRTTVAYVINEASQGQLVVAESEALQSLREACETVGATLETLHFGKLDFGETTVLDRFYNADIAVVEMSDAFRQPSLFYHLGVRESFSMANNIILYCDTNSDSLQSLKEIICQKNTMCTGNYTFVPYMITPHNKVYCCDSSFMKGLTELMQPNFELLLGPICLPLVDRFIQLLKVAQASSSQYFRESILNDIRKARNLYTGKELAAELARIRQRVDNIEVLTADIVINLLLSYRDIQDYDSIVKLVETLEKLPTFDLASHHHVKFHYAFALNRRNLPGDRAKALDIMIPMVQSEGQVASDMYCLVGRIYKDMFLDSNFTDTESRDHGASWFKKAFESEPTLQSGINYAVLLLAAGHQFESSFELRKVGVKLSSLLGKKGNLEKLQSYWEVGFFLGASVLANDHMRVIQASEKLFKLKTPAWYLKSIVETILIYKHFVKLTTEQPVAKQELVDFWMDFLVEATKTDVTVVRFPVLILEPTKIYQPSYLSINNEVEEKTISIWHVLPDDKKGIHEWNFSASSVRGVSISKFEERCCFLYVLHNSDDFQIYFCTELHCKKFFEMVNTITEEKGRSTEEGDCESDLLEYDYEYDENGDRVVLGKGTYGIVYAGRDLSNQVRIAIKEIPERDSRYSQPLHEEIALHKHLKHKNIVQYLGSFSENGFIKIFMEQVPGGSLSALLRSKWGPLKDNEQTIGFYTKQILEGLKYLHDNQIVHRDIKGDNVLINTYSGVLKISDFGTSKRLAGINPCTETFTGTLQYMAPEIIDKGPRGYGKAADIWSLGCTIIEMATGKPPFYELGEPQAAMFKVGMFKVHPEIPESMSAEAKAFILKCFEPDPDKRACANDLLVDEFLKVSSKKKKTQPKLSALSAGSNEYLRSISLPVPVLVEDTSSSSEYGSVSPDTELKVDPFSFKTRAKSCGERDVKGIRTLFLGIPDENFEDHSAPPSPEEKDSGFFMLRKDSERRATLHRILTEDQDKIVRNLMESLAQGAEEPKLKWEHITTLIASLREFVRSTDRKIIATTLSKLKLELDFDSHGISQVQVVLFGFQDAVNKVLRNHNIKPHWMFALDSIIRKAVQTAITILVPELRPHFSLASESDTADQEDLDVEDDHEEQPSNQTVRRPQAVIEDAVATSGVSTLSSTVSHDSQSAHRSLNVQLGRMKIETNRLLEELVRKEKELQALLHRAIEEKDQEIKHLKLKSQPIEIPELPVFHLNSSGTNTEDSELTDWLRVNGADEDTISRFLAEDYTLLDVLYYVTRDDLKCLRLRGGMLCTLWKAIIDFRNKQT
Sequence of ASK1/MAP3K5 (Q99683 whole entry): as above
Sequence of GST-hASK1 (Q99683 649-946): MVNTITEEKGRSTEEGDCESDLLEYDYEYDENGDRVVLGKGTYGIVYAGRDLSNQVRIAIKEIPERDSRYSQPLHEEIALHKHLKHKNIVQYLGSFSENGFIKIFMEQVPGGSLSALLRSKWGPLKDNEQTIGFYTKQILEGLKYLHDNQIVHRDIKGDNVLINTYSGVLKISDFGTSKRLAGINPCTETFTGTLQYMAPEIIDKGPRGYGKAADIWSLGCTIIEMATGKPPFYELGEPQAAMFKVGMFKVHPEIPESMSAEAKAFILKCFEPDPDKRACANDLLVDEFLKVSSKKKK

The IC50 is the concentration at which inhibition is half-maximal. `O=C1Nc2cccc(n2)-c2nncn2CCCCOc2ccc(N3CC4CCC(C3)O4)cc21` [Example 7, 5^5-(8-Oxa-3-azabicyclo[3.2.1]octan-3-yl)-1^4H-6-oxa-3-aza-2(2,6)-pyridina-1(3,4)-triazola-5(1,2)-benzenacyclodecaphan-4-one]: the figures for the IC50 (against GST-hASK1; in test [1]) were below 100 nM and below 1000 nM, respectively.

`CCN1CCN(c2ccc3c(c2)C(=O)Nc2cccc(n2)-c2nncn2CCCCO3)CC1` [Example 13, 5^5-(4-Ethylpiperazin-1-yl)-1^4H-6-oxa-3-aza-2(2,6)-pyridina-1(3,4)-triazola-5(1,2)-benzenacyclodecaphan-4-one]: the IC50 on GST-hASK1 was below 100 nM; in test [1] it was below 1000 nM.

As for `O=C1Nc2cccc(n2)-c2nncn2CCCCOc2ccc(C3=CCOC3)cc21` [Example 14, 5^5-(2,5-Dihydrofuran-3-yl)-1^4H-6-oxa-3-aza-2(2,6)-pyridina-1(3,4)-triazola-5(1,2)-benzenacyclodecaphan-4-one], the figures for the half-inhibitory concentration (IC50) (at GST-hASK1; in test [1]) were below 100 nM and below 1000 nM, respectively.

Regarding `O=C1Nc2cccc(n2)-c2nncn2CCCCOc2ccc(C3=CCOCC3)cc21` [Example 16, 5^5-(3,6-Dihydro-2H-pyran-4-yl)-1^4H-6-oxa-3-aza-2(2,6)-pyridina-1(3,4)-triazola-5(1,2)-benzenacyclodecaphan-4-one], the half-inhibitory concentration (IC50) on GST-hASK1 was below 100 nM; in test [1], below 1000 nM.

Consider `C=Cc1ccc2c(c1)C(=O)Nc1cccc(n1)-c1nncn1CCCCO2` [Example 19, 5^5-Vinyl-1^4H-6-oxa-3-aza-2(2,6)-pyridina-1(3,4)-triazola-5(1,2)-benzenacyclodecaphan-4-one], for which the results for the half-maximal inhibitory concentration (IC50) (at GST-hASK1; in test [1]) were below 100 nM and below 1000 nM, respectively.

Regarding `Cn1cc(-c2ccc3c(c2)C(=O)Nc2cccc(n2)-c2nncn2CCCCO3)nn1` [Example 30, 5^5-(1-Methyl-1H-1,2,3-triazol-4-yl)-1^4H-6-oxa-3-aza-2(2,6)-pyridina-1(3,4)-triazola-5(1,2)-benzenacyclodecaphan-4-one], the figures for the half-inhibitory concentration (IC50) (at GST-hASK1; in test [1]) were below 100 nM and 1000 to 10000 nM, respectively.

Consider `O=C1Nc2cccc(n2)-c2nncn2CCCCOc2ccc(C(=O)N3CCCC3)cc21` [Example 31, 5^5-(Pyrrolidine-1-carbonyl)-1^4H-6-oxa-3-aza-2(2,6)-pyridina-1(3,4)-triazola-5(1,2)-benzenacyclodecaphan-4-one], for which, at GST-hASK1, the IC50 was in the range of 100 to 1000 nM.

Consider `C[C@@H]1CCCOc2ccc(-c3cnn(C)c3)cc2C(=O)Nc2cccc(n2)-c2nncn21` [Example 95, (R)-10-Methyl-5^5-(1-methyl-1H-pyrazol-4-yl)-1^4H-6-oxa-3-aza-2(2,6)-pyridina-1(3,4)-triazola-5(1,2)-benzenacyclodecaphan-4-one], for which the results for the IC50 (on GST-hASK1; in test [1]) were 100 to 1000 nM and 1000 to 10000 nM, respectively.

`CN1C(=O)c2cc(Br)ccc2OCCCCn2cnnc2-c2cccc1n2` [Example 152, 5^5-Bromo-3-methyl-1^4H-6-oxa-3-aza-2(2,6)-pyridina-1(3,4)-triazola-5(1,2)-benzenacyclodecaphan-4-one]: the half-inhibitory concentration (IC50) was at least 10000 nM against GST-hASK1 (class given in words) and above 10000 nM in test [1].

For the compound `O=C1Nc2cccc(n2)-c2nncn2CCCCOc2cc(C(F)(F)F)ccc21` [Example 153, 5^4-(Trifluoromethyl)-1^4H-6-oxa-3-aza-2(2,6)-pyridina-1(3,4)-triazola-5(1,2)-benzenacyclodecaphan-4-one], the half-inhibitory concentration (IC50) against GST-hASK1 was below 100 nM; in test [1], below 1000 nM.

As to `O=C1Nc2cccc(n2)-c2nncn2C/C=C/COc2cc(C(F)(F)F)ccc21` [Example 154, (E)-5^4-(Trifluoromethyl)-1^4H-6-oxa-3-aza-2(2,6)-pyridina-1(3,4)-triazola-5(1,2)-benzenacyclodecaphan-8-en-4-one], the 50% inhibitory concentration (IC50) against GST-hASK1 fell in the range of 100 to 1000 nM; in test [1], 1000 to 10000 nM.

Turning to `O=C1Nc2cccc(n2)-c2nncn2C/C=C\COc2cc(C(F)(F)F)ccc21` [Example 155, (Z)-5^4-(Trifluoromethyl)-1^4H-6-oxa-3-aza-2(2,6)-pyridina-1(3,4)-triazola-5(1,2)-benzenacyclodecaphan-8-en-4-one], the IC50 fell in the range of 100 to 1000 nM against GST-hASK1 and 1000 to 10000 nM in test [1].

On to `O=C1Nc2cccc(n2)-c2nncn2C/C=C/COc2cc(F)ccc21` [Example 157, (E)-5^4-Fluoro-1^4H-6-oxa-3-aza-2(2,6)-pyridina-1(3,4)-triazola-5(1,2)-benzenacyclodecaphan-8-en-4-one], for which the IC50 on GST-hASK1 was 100 to 1000 nM; in test [1], 1000 to 10000 nM.

Compound `O=C1Nc2cccc(n2)-c2nncn2CCCCCOc2ccc(Br)cc21` [Example 170, 5^5-Bromo-1^4H-6-oxa-3-aza-2(2,6)-pyridina-1(3,4)-triazola-5(1,2)-benzenacycloundecaphan-4-one] yielded a half-maximal inhibitory concentration (IC50) on GST-hASK1 below 100 nM.

As for `CN(C)CCn1cc(-c2cc3c(cc2F)OCC/C=C/Cn2cnnc2-c2cccc(n2)NC3=O)cn1` [Example 178, (E)-5^5-(1-(2-(Dimethylamino)ethyl)-1H-pyrazol-4-yl)-5^4-fluoro-1^4H-6-oxa-3-aza-2(2,6)-pyridina-1(3,4)-triazola-5(1,2)-benzenacycloundecaphan-9-en-4-one], the half-maximal inhibitory concentration (IC50) is below 100 nM at ASK1/MAP3K5 and below 1000 nM in test [1].

As for `CN(C)CCn1cc(-c2cc3c(cc2F)OCC/C=C\Cn2cnnc2-c2cccc(n2)NC3=O)cn1` [Example 179, (Z)-5^5-(1-(2-(Dimethylamino)ethyl)-1H-pyrazol-4-yl)-5^4-fluoro-1^4H-6-oxa-3-aza-2(2,6)-pyridina-1(3,4)-triazola-5(1,2)-benzenacycloundecaphan-9-en-4-one], the results for the IC50 (against ASK1/MAP3K5; in test [1]) were below 100 nM and below 1000 nM, respectively.

In the case of `O=C1Nc2cccc(n2)-c2nncn2C/C=C\CCOc2cc(F)c(-c3ccncc3)cc21` [Example 180, (Z)-5^4-Fluoro-5^5-(pyridin-4-yl)-1^4H-6-oxa-3-aza-2(2,6)-pyridina-1(3,4)-triazola-5(1,2)-benzenacycloundecaphan-9-en-4-one], the 50% inhibitory concentration (IC50) was below 100 nM against ASK1/MAP3K5 and below 1000 nM in test [1].

`O=C1Nc2cccc(n2)-c2nncn2C/C=C\CCOc2cc(F)c(N3CCOCC3)cc21` [Example 181, (Z)-5^4-Fluoro-5^5-morpholino-1^4H-6-oxa-3-aza-2(2,6)-pyridina-1(3,4)-triazola-5(1,2)-benzenacycloundecaphan-9-en-4-one]: the 50% inhibitory concentration (IC50) against ASK1/MAP3K5 was below 100 nM; in test [1], below 1000 nM.

`O=C1Nc2cccc(n2)-c2nncn2CCCOc2ccc(Br)cc21` [Example 183, 5^5-Bromo-1^4H-6-oxa-3-aza-2(2,6)-pyridina-1(3,4)-triazola-5(1,2)-benzenacyclononaphan-4-one] registered a 50% inhibitory concentration (IC50) on GST-hASK1 of 1000 to 10000 nM.

`O=C1Nc2cccc(n2)-c2nncn2CCCOc2ccc(N3CCOCC3)cc21` [Example 184, 5^5-Morpholino-1^4H-6-oxa-3-aza-2(2,6)-pyridina-1(3,4)-triazola-5(1,2)-benzenacyclononaphan-4-one] gave an IC50 at GST-hASK1 of 100 to 1000 nM.

As for “(R)-5^4-Bromo-10-methyl-1^4H-6-oxa-3-aza-2(2,6)-pyridina-1(3,4)-triazola-5(1,2)-benzenacyclodecaphan-4-one [Example 121]”, the half-maximal inhibitory concentration (IC50) against ASK1/MAP3K5 is 1000 to 10000 nM; in test [1], above 10000 nM.

Consider “(S)-5^4-Bromo-10-methyl-1^4H-6-oxa-3-aza-2(2,6)-pyridina-1(3,4)-triazola-5(1,2)-benzenacyclodecaphan-4-one [Example 120]”, for which the IC50 was below 100 nM against ASK1/MAP3K5 and below 1000 nM in test [1].
